Series [1] can be described thus: Selectivity index, ratio of IC50 for human KB cells to IC50 for Plasmodium falciparum K1. The format is toxicity, cell-based. The conditions noted are these: KB cells (cytotoxicity) versus Plasmodium falciparum K1, read-out: Selectivity Index.
The test system of series [2] is Plasmodium falciparum. The series is described as follows: Antiplasmodial activity against Plasmodium falciparum K1.
In series [3] the test system is Plasmodium falciparum. In words: Antiplasmodial activity against chloroquine-resistant Plasmodium falciparum K1 infected erythrocytes by [3H]hypoxanthine uptake. The series is classed as functional, organism-based.

Consider `COC1=C[C@@H](C)[C@@H]2C[C@H]3OC(=O)C[C@H]4C(C)=C(OC)C(=O)[C@H]([C@@]2(C)C1=O)[C@@]34C` [QUASSIN], for which the selectivity ratio in series [1] was greater than 1. For the same compound, the values for the IC50 in the series on Plasmodium falciparum [2] and in the series with Plasmodium falciparum [3] were 911 µM and greater than 1000 µM, respectively.
The like results for `COC1=C[C@@H](C)[C@@H]2C[C@H]3OC(OC4C[C@H]5C(C)=C(OC)C(=O)[C@@H]6[C@@]7(C)C(=O)C(OC)=C[C@@H](C)[C@@H]7C[C@@H](O4)[C@]65C)C[C@H]4C(C)=C(OC)C(=O)[C@H]([C@@]2(C)C1=O)[C@@]34C` (some centres not stated) [NEOQUASSIN ETHER] were, in that order, 15.3, 9.7 µM and 149 µM.
Regarding `CC[C@H]1CN2CCc3cc(OC)c(OC)cc3[C@@H]2C[C@@H]1C[C@H]1NCCc2cc(OC)c(OC)cc21`, half-maximal inhibition in the series with Plasmodium falciparum [3] (IC50) was put at 0.96 µM.
Consider `COC1=C[C@@H](C)[C@@H]2C[C@H]3OC(=O)[C@H](O)[C@H]4C(C)=C(OC)C(=O)[C@H]([C@@]2(C)C1=O)[C@]43C`, for which, in series [1], the selectivity ratio was greater than 1.1. In addition, the results for the IC50 in the series with Plasmodium falciparum [2] and in the series on Plasmodium falciparum [3] were 930 µM and greater than 1000 µM, respectively.
In the case of `COC1=C[C@@H](C)[C@@H]2C[C@H]3OC(=O)[C@H]4C(C)=C(OC)C(=O)[C@H]([C@@]2(C)C1=O)[C@]43C` [QUASSILACTONE], the selectivity ratio in series [1] is 17.7. In addition, the IC50 (usually the concentration that inhibits the measured activity by half) in the series with Plasmodium falciparum [2] worked out at 23 µM; in the series on Plasmodium falciparum [3], 406 µM.
`COC1=C[C@@H](C)[C@@H]2C[C@H]3OC(O)[C@H](O)[C@H]4C(C)=C(OC)C(=O)[C@H]([C@@]2(C)C1=O)[C@]43C` (some centres not stated) [HYDROXYNEOQUASSINS]: the half-inhibitory concentration (IC50) in the series on Plasmodium falciparum [2] amounted to 68 µM.
Take `COC1=C[C@@H](C)[C@@H]2C[C@H]3OC(O)C[C@H]4C(C)=C(OC)C(=O)[C@H]([C@@]2(C)C1=O)[C@@]34C` (some centres not stated) [NEOQUASSIN]: the selectivity ratio in series [1] is 1.3. Besides, the concentration for half-maximal inhibition (IC50) is 473 µM with Plasmodium falciparum [2] and 615 µM with Plasmodium falciparum [3].
Turning to `COC1=C[C@@H](C)[C@@H]2C[C@H]3OC=C[C@H]4C(C)=C(OC)C(=O)[C@H]([C@@]2(C)C1=O)[C@@]34C` [ANHYDROQUASSIN], the selectivity ratio in series [1] was greater than 1. The IC50 with Plasmodium falciparum [2] is 809 µM; in the series with Plasmodium falciparum [3], greater than 1000 µM.
In the series on Plasmodium falciparum [2], `CCN(CC)CCCC(C)Nc1ccnc2cc(Cl)ccc12` (configuration not stated) [CHLOROQUINE PHOSPHATE] registered an IC50 of 0.6 µM.
On to `COC1=C[C@@H](C)[C@@H]2C[C@H]3OC(OC(=O)c4cccc(Cl)c4)[C@H](O)[C@H]4C(C)=C(OC)C(=O)[C@H]([C@@]2(C)C1=O)[C@]43C` (some centres not stated), for which the selectivity ratio in series [1] came to 112. Also, the concentration for half-maximal inhibition (IC50) with Plasmodium falciparum [2] amounted to 1.8 µM; with Plasmodium falciparum [3], 232 µM.
The like results for `COC1=C[C@@H](C)[C@@H]2C[C@H]3O[C@@H](O)[C@H]4C(C)=C(OC)C(=O)[C@H]([C@@]2(C)C1=O)[C@]43C` [QUASSILACTOL] were, in that order, 8.9, 65 µM and 576 µM.

Values taken from ChEMBL document CHEMBL1147250, “Enhancement of the antiplasmodial activity of quassin by transformation into a gamma-lactone” (J Nat Prod, 2003).
